The results in this text go back to EP4534147A1, “STING ANTAGONIST COMPOUNDS” (Sulis Therapeutics ApS, priority 2023, dated 2025).

A value given as a limit tells only on which side of the number the result lay.

For assay [1], the target named is T1, C-terminal domain (CTD) of human STING (Homo sapiens, UniProt Q86WV6). In words: STING binding TR-FRET assay (CisBio Human STING WT Binding Kit). On the set-up: purchased CisBio 64BDSTGPEG
Target sequence in this assay (Q86WV6 135-379 limits assumed): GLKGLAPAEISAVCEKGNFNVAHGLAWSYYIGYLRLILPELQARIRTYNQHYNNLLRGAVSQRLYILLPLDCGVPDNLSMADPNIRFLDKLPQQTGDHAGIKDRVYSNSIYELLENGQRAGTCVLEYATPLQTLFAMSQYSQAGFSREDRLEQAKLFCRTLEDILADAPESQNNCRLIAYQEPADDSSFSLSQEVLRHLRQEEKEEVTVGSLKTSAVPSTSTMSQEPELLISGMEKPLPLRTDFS
Particulars: recombinant human STING with His-tag, D2-labeled active site probe, 60 min at room temperature. How it is done: STING binding can be determined by a time-resolved FRET assay. For instance, a STING protein having a His-tag can be used. A D2-labeled active site probe can be used to accept 620 nm emission from Anti-HIS-Tb-STING. Increased fluorescence is measured at 665 nm. Molecules that compete for the probe binding site will result in a lower 665 nm signal. The assay can be performed in low-volume white 96-well plates containing 5 µL compounds in an appropriate diluent buffer. Following 60 minutes incubation at room temperature in the dark, fluorescence emission at 665 nm is measured following 330 nm xenon flash excitation. pIC50 values can be determined using a standard four parameter curve fit.
The affinity of molecules to the C-terminal domain (CTD) of human STING was determined using a commercial Human STING WT Binding Kit (CisBio, cat.# 64BDSTGPEG). In this time-resolved FRET assay, a recombinant human STING protein construct with a His-tag was employed. When bound to STING, a D2-labeled active site probe accepts the 620 nm emission from Anti-HIS-Tb-STING and an increase in fluorescence is measured at 665 nm. Molecules that compete for the probe binding site will result in a low 665 nm signal. The assay was run in CisBio low-volume white 96-well plates (catalog# 66PL96005) containing 5 µL compounds in Diluent Buffer (supplied with the CisBio kit). A solution of 1xSTING, 1x Anti-HIS-Tb and 1X D2-probe in TB detection buffer (kit supplied) was added to the plate. Plates were centrifuged for 2 min at 500 rpm, incubated for 60 min at room temperature in the dark, and then fluorescence emission at 665 nm following 330 nm xenon flash excitation on an BioTek synergy H1 multimode reader (Agilent) was measured. The plC50 values were determined using a standard four parameter curve fit in GraphPad Prism.
In general terms: In TR-FRET formats the signal depends on donor and acceptor labels being close together.

For assay [2], the target named is T1, C-terminal domain (CTD) of human STING. In words: STING binding FP assay I (fluorescence polarization competition binding). Also noted: recombinant human STING protein (155-379). Particulars: recombinant human STING protein (155-379), 35 nM STING, 4 nM fluorescein-labelled STING ligand (Probe 1), 20 min at room temperature. How it is done:
The interaction between molecules and the C-terminal domain (CTD) of human STING was evaluated using a competition binding assay. In this assay, recombinant human STING protein (155-379) and a STING binding fluorescent probe were employed. Upon binding of the probe to STING, the rotation of the fluorescent probe is slowed due to the larger molecular size of the protein-bound complex. As a result, emitted light retains its plane of polarization, leading to an increase in fluorescence polarization. Molecules competing for the probe binding site displace the probe, which leads to rapid randomization of the polarization plane of the emitted light and a subsequent decrease in measured fluorescence polarization signal. Change in polarization was measured, allowing a comparative evaluation of the binding affinities of different compounds to the target protein.
The assay was performed in 96-well plates (ThermoFisher, cat.# 237108) containing 100 µl : 10 µL test compound in 10% DMSO and buffer A (150 mM NaCl, 50 mM HEPES pH 7.5, 1 mM DTT) + 90 µL prepared master mix solution of: 4 nM fluorescein-labelled STING ligand (Probe 1; synthesis described above) in buffer A + 0.055% Tween-20 (v/v) and 35 nM STING in buffer A. Post mixing, plates were agitated at 600 rpm and incubated for 20 min at room temperature. Subsequent measurements of the fluorescence polarization signal were made on a BioTek Synergy-H1 plate reader, using a polarization filter; excitation: 485/20 nm, emission: 528/20 nm) with a gain-setting of 75. IC50 values were determined using a standard non-linear regression four-parameter curve fit in Graphpad Prism.
Target sequence in this assay (Q86WV6 155-379): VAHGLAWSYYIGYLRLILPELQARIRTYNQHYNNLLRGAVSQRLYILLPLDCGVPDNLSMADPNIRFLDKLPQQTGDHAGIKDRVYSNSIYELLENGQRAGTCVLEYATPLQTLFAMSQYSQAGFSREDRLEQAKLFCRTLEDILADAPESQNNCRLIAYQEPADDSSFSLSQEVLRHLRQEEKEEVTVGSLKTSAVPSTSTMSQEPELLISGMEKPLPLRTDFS
A general note: In fluorescence polarisation assays a small probe gives low polarisation when free and higher when bound to something large.

Another assay addresses T2, STING (Homo sapiens, UniProt Q86WV6).
T2 construct: endogenous in cells; host or cells: human skin fibroblasts
Nature of the assay: Human FB STING antagonist assay (IFN-a/b release). It counts as cell-based. Particulars: Human skin fibroblasts, 2h pre-treatment, 300 nM GSK STING agonist (CAS number: 2138299-34-8) for 20 h, release of IFN-a/b by HEK-Blue IFN-α/β bioassay. How it is done:
STING antagonist activity can be determined by a human fibroblast antagonist assay. For this, human skin fibroblasts are pre-treated for 2h with a serial dilution of the compound, and are then stimulated for 20 hours with 300 nM STING agonist (e.g. from GSK, CAS number: 2138299-34-8). Supernatants are then harvested and assessed for IFN-a/b release, which indicates STING activation. IFN-a/b concentration in the supernatant is determined, e.g. using an IFN-α/β bioassay. IC50 values are calculated using a non-linear regression fitting, variable slope (4 parameters).
Human skin fibroblasts were pre-treated for 2h with a serial dilution of test compound followed by stimulation with mock or 300 nM GSK STING agonist (CAS number: 2138299-34-8). Supernatants were harvested after 20 h of STING agonist stimulation. Release of IFN-a/b was determined using HEK-Blue IFN-α/β bioassay (Invivogen). Cellular viability was assessed using Alamar Blue HS assay. IC50 values were estimated using a non-linear regression fitting, variable slope (4 parameters) in GraphPad Prism 9.3.1.

What is called IC50 is the midpoint of a concentration-inhibition curve.

T2 sequence (Q86WV6 whole entry): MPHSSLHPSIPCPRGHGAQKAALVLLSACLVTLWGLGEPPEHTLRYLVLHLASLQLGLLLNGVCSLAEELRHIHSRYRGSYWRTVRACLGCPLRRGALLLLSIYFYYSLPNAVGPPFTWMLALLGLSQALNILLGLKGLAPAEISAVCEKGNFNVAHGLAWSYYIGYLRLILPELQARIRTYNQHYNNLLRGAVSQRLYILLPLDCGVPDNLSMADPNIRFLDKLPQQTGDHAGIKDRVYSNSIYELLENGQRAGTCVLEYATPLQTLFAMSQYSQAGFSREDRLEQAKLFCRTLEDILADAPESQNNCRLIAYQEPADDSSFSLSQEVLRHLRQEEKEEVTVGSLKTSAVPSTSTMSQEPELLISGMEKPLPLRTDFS

In the case of `CCn1nc(C)cc1C(=O)N=c1n(C)c2cc(C(N)=O)ccc2n1CCC(CCn1c(=NC(=O)c2cc(C)nn2CC)n(C)c2cc(C(N)=O)ccc21)OCC(=O)O` (stereo not shown) [Example 3, (3-{5-Carbamoyl-2-[(1-ethyl-3-methyl-5-pyrazolyl)carbonylimino]-3-methyl-2,3-dihydro-1H-1,3-benzimidazol-1-yl}-1-(2-{5-carbamoyl-2-[(1-ethyl-3-methyl-5-pyrazolyl)carbonylimino]-3-methyl-2,3-dihydro-1H-1,3-benzimidazol-1-yl}ethyl)propoxy)acetic acid], the IC50 in assay [1] is 0.452 nM; in assay [2], under 30 nM.

For `CCn1nc(C)cc1C(=O)N=c1n(C)c2cc(C(N)=O)ccc2n1CCC(CCn1c(=NC(=O)c2cc(C)nn2CC)n(C)c2cc(C(N)=O)ccc21)OCC(=O)NC(C)C` (stereo not shown) [Example 5, 1-{3-[(N-lsopropylcarbamoyl)methoxy]-5-{5-carbamoyl-2-[(1-ethyl-3-methyl-5-pyrazolyl)carbonylimino]-3-methyl-2,3-dihydro-1H-1,3-benzimidazol-1-yl}pentyl}-2-[(1-ethyl-3-methyl-5-pyrazolyl)carbonylimino]-3-methyl-2,3-dihydro-1H-1,3-benzimidazole-5-carboxamide], the values for the IC50 in assay [1] and in assay [2] were 0.38 nM and under 30 nM, respectively.

In the case of `CCn1nc(C)cc1C(=O)N=c1n(C)c2cc(C(N)=O)ccc2n1CCC(CCn1c(=NC(=O)c2cc(C)nn2CC)n(C)c2cc(C(N)=O)ccc21)OCC(=O)Nc1ccccc1` (stereo not shown) [Example 6, 1-{3-[(N-Phenylcarbamoyl)methoxy]-5-{5-carbamoyl-2-[(1-ethyl-3-methyl-5-pyrazolyl)carbonylimino]-3-methyl-2,3-dihydro-1H-1,3-benzimidazol-1-yl}pentyl}-2-[(1-ethyl-3-methyl-5-pyrazolyl)carbonylimino]-3-methyl-2,3-dihydro-1H-1,3-benzimidazole-5-carboxamide], the IC50 at STING is 7600 nM; in assay [1], 0.6 nM; in assay [2] it was under 30 nM.

Consider `CCn1nc(C)cc1C(=O)N=c1n(C)c2cc(C(N)=O)ccc2n1CCC(CCn1c(=NC(=O)c2cc(C)nn2CC)n(C)c2cc(C(N)=O)ccc21)OCC(=O)N1CCOCC1` (stereo not shown) [Example 7, 1-(5-{5-Carbamoyl-2-[(1-ethyl-3-methyl-5-pyrazolyl)carbonylimino]-3-methyl-2,3-dihydro-1H-1,3-benzimidazol-1-yl}-3-(2-morpholino-2-oxoethoxy)pentyl)-2-[(1-ethyl-3-methyl-5-pyrazolyl)carbonylimino]-3-methyl-2,3-dihydro-1H-1,3-benzimidazole-5-carboxamide], for which the IC50 on STING is 3500 nM; in assay [1], 0.267 nM; in assay [2] it was under 30 nM.

Turning to `CCn1nc(C)cc1C(=O)N=c1n(C)c2cc(C(N)=O)ccc2n1CCC(CCn1c(=NC(=O)c2cc(C)nn2CC)n(C)c2cc(C(N)=O)ccc21)OCC(=O)N1CCc2cc(OC)ccc2C1` (stereo not shown) [Example 9, 1-(5-{5-Carbamoyl-2-[(1-ethyl-3-methyl-5-pyrazolyl)carbonylimino]-3-methyl-2,3-dihydro-1H-1,3-benzimidazol-1-yl}-3-[2-(6-methoxy-1,2,3,4-tetrahydro-2-isoquinolyl)-2-oxoethoxy]pentyl)-2-[(1-ethyl-3-methyl-5-pyrazolyl)carbonylimino]-3-methyl-2,3-dihydro-1H-1 ,3-benzimidazole-5-carboxamide], the IC50 on STING is 13100 nM; in assay [1], 0.665 nM; in assay [2], under 30 nM.
